Among the test systems are HCT-15 colon; SNB-19 CNS; SF-295 CNS; UACC-257 melanoma; LOX IMVI melanoma; SK-MEL-5 melanoma; K-562 leukemia; A498 renal; CCRF-CEM leukemia; DU-145 prostate.
Common to all, as to assay: NCI tumour cell line growth inhibition, 48 h

Several values for one entry are separate records, joined by “and”; a condition that tells them apart may be missing. Equal entries are not always repeated.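 In this assay, cells in 96-well plates receive the compound at five concentrations for 48 hours. Endpoints are linearly interpolated between the surrounding concentrations. GI50 is the concentration that inhibits growth by half. TGI denotes the concentration required for complete inhibition of growth.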 Where only a bound is given, the exact number is not on record here.

In the case of `CCC[C@H]1C(=O)N=C(N)N1C(=O)OCc1ccccc1`, the TGI in the test with HCT-15 colon, with SNB-19 CNS, with SF-295 CNS, with UACC-257 melanoma, with LOX IMVI melanoma and in the test with SK-MEL-5 melanoma was above 100 µM throughout. Moreover, the TGI in the test with K-562 leukemia and with A498 renal was above 100 µM in each case.
Turning to `C=C1C(O)C2(O)OCC34C(CC5C(C)=CC(=O)C(O)C5(C)C23)OC(=O)C(OC(=O)C/C=C(\C)CCCCC)C14` (configuration not stated), the GI50 in the test on HCT-15 colon was 0.00953 µM and 0.0434 µM; in the test on SNB-19 CNS, below 0.001 µM; in the test on SF-295 CNS it was 0.0013 µM; with UACC-257 melanoma, below 0.001 µM; in the test with CCRF-CEM leukemia it was below 0.001 µM; with SK-MEL-5 melanoma, below 0.001 µM. Moreover, the GI50 was below 0.001 µM in the test with K-562 leukemia; 0.00249 µM and 0.0223 µM in the test with A498 renal. In addition, the TGI in the test on HCT-15 colon was 0.0503 µM and 0.352 µM and 0.151 µM; in the test on SF-295 CNS it was 0.00567 µM and 0.0245 µM and 0.0174 µM; in the test with SK-MEL-5 melanoma, below 0.001 µM; in the test with A498 renal, 0.00941 µM and 0.057 µM and 0.0255 µM.
As to `NC(=O)C(=O)N/N=C1/c2ccccc2CC1C1(O)C(=O)Nc2c(Cl)cc(Cl)cc21` (configuration not stated), the TGI with HCT-15 colon, in the test with SNB-19 CNS, in the test on SF-295 CNS, in the test on UACC-257 melanoma, in the test on CCRF-CEM leukemia and in the test with LOX IMVI melanoma was above 100 µM throughout. For the same molecule, the TGI in the test with SK-MEL-5 melanoma, in the test with K-562 leukemia and with A498 renal was above 100 µM in each case.
For the molecule `COc1ccc(-c2cc(=O)c3cc4c(cc3[nH]2)OCO4)c(OC)c1OC`, the TGI with HCT-15 colon, with SNB-19 CNS, with SF-295 CNS, with CCRF-CEM leukemia, in the test with LOX IMVI melanoma and in the test on SK-MEL-5 melanoma was above 100 µM in each case. Further, in the test with K-562 leukemia, the TGI is above 100 µM.
Turning to `CSCCC(NCc1c(O)ccc2c(-c3ccccc3)cc(=O)oc12)C(=O)O` (configuration not stated), the TGI in the test with HCT-15 colon, in the test on SNB-19 CNS, in the test on SF-295 CNS, with UACC-257 melanoma, with CCRF-CEM leukemia and in the test with LOX IMVI melanoma was above 100 µM each time. Moreover, the TGI in the test on SK-MEL-5 melanoma, in the test with DU-145 prostate and in the test with K-562 leukemia was above 100 µM throughout.
Take `N#Cc1c(-c2ccccc2)/c(=C\Nc2ccc(Cl)cc2)c(=O)n2c1nc1ccccc12`: the TGI with HCT-15 colon is above 100 µM; with SNB-19 CNS, above 100 µM; in the test on SF-295 CNS, above 100 µM; in the test on UACC-257 melanoma it was above 100 µM; in the test on CCRF-CEM leukemia it was 84.9 µM; in the test with LOX IMVI melanoma, above 100 µM. The TGI with SK-MEL-5 melanoma and in the test on A498 renal was above 100 µM throughout.
`CCCCCCCCCC[C@H](O)[C@H]1CC[C@H]([C@H]2CC[C@H]([C@H](O)CC[C@H](O)CCCCCCC[C@@H](O)CC3=C[C@H](C)OC3=O)O2)O1`: the TGI with HCT-15 colon, with SNB-19 CNS, with SF-295 CNS, with UACC-257 melanoma, in the test with CCRF-CEM leukemia and with LOX IMVI melanoma was above 100 µM throughout. The TGI in the test on SK-MEL-5 melanoma is 3.93 µM; in the test with K-562 leukemia, 67.8 µM; in the test with A498 renal, above 100 µM. The GI50 with CCRF-CEM leukemia was 3.12 µM; in the test with LOX IMVI melanoma it was 1.26 µM; in the test on A498 renal, 89.4 µM.
Regarding `Oc1ccc(-c2nnc3sc(-c4ccc(F)cc4)nn23)cc1`, the GI50 in the test on HCT-15 colon is above 100 µM; with SNB-19 CNS, 21.3 µM; in the test on SF-295 CNS, 18.1 µM; in the test with UACC-257 melanoma, above 100 µM; with CCRF-CEM leukemia it was 55.7 µM; in the test with LOX IMVI melanoma, 34.5 µM. Besides, the GI50 in the test on SK-MEL-5 melanoma is 70.4 µM; with DU-145 prostate, 51.2 µM; in the test with K-562 leukemia, above 100 µM. The TGI with HCT-15 colon was above 100 µM; in the test on SNB-19 CNS it was above 100 µM; with SF-295 CNS, 59.9 µM; in the test on UACC-257 melanoma, above 100 µM; in the test with CCRF-CEM leukemia, above 100 µM; with LOX IMVI melanoma it was above 100 µM. The TGI with SK-MEL-5 melanoma, in the test with DU-145 prostate and in the test on K-562 leukemia was above 100 µM each time.
With `COc1cc(/C=C/C(=O)O)ccc1C(=O)O/C=C/c1ccccc1`, the TGI in the test with HCT-15 colon, in the test on SNB-19 CNS, in the test with SF-295 CNS, in the test on UACC-257 melanoma, in the test on CCRF-CEM leukemia and with LOX IMVI melanoma was above 100 µM each time. In addition, the TGI in the test with SK-MEL-5 melanoma, in the test on K-562 leukemia and in the test with A498 renal was above 100 µM each time.
For `COc1cc(C2c3cc4c(cc3OC(NN=C(C)C)C2C)OCO4)cc(OC)c1O` (configuration not stated), the TGI is above 100 µM in the test on HCT-15 colon; above 100 µM in the test with SNB-19 CNS; above 100 µM with SF-295 CNS; above 100 µM in the test with UACC-257 melanoma; 38.1 µM in the test on SK-MEL-5 melanoma; above 100 µM in the test with DU-145 prostate.
For `CCN(CC)CCNc1ccc2nnn3c4ccc(OC)cc4c(=O)c1c23`, the TGI amounted to 18.7 µM with HCT-15 colon; 25.9 µM with SNB-19 CNS; 18.6 µM in the test on SF-295 CNS; 25.1 µM in the test on UACC-257 melanoma; 32.7 µM in the test with CCRF-CEM leukemia; 11.1 µM in the test with LOX IMVI melanoma. Also, the TGI in the test on SK-MEL-5 melanoma turned out to be 25.5 µM; with K-562 leukemia, 20.1 µM; in the test with A498 renal, 27 µM.
In the case of `O=C(Nc1cccc2cnccc12)c1cc2c(cc1Cl)Sc1nccn1S2(=O)=O`, the TGI in the test with HCT-15 colon is 27.8 µM; in the test with SNB-19 CNS, 65.3 µM; in the test on SF-295 CNS it was 43.5 µM; with UACC-257 melanoma, 45.1 µM; in the test on LOX IMVI melanoma, 31.8 µM; in the test with SK-MEL-5 melanoma, 26.2 µM. Besides, the values for the TGI in the test on DU-145 prostate and in the test with K-562 leukemia were 55.9 µM and above 100 µM, respectively.
`CCC1=CCC23C(=O)C=CC(=O)C2(C1)C(=O)c1cccc(OC)c1C3=O` (configuration not stated): the TGI in the test on HCT-15 colon was 37 µM; in the test on SNB-19 CNS, 53.7 µM; in the test on SF-295 CNS, above 100 µM; with UACC-257 melanoma it was 30.1 µM; in the test on CCRF-CEM leukemia, 28.1 µM; with LOX IMVI melanoma, 29.9 µM. Besides, the TGI amounted to 31.5 µM in the test with SK-MEL-5 melanoma, 32.2 µM with DU-145 prostate and 72.4 µM with K-562 leukemia.
`COc1cc(/C=C2\C(=O)N(C(=O)Cc3ccccc3)N=C2C)ccc1O`: the TGI in the test with HCT-15 colon, in the test with SNB-19 CNS, in the test with SF-295 CNS, in the test with UACC-257 melanoma, with CCRF-CEM leukemia and with LOX IMVI melanoma was above 100 µM throughout. For the same molecule, the TGI in the test on SK-MEL-5 melanoma and in the test on K-562 leukemia was above 100 µM each time.
